Assay results published in PMC8157262 (Pharmaceutics, 2021).
Like-named read-outs stand apart in the source and are kept apart here.

Tests used:
[1] = oral, healthy male adults; cited from earlier work
[2] = cited from earlier work
[3] = Sprague-Dawley, rat, in vivo
in vitro [4] = settings: rat, liver microsomes
[5] = Pharmacokinetics after intravenous administration of tofacitinib and/or voriconazole to rats; settings: Sprague-Dawley, rat, 10 mg/kg
Protocol: In all cases, the treatment was administered intravenously for 1 min via the jugular vein (total injection volume of 4 mL/kg). Blood samples (approximately 0.12 mL for single drug administration and 0.22 mL for co-administration of both drugs) were taken from the carotid artery at 0 (before the start of injection), 1 (right after injection), 5, 15, 30, 60, 120, 180, 240, 360, 480, 600 and/or 720 min after the start of injection. […] Urine samples, collected for 24 h following injection, and gastrointestinal tract (including its contents and feces) samples, collected 24 h after injection, were prepared in accordance with previously reported methods.

rat hepatic microsomes = settings: for Vmax for the elimination of tofacitinib: liver microsomes, n = 3
[6] = tested on: rat intestinal microsomes
in vivo = settings: Sprague-Dawley, rat; for bioavailability: F
[7] = Protein binding of tofacitinib to fresh rat plasma (equilibrium dialysis); format: in vitro ADME; settings: n = 5, read-out: Protein binding (bound fraction) (converted)
Protocol: Briefly, plasma was dialyzed against isotonic phosphate buffer (pH 7.4) in a 1 mL dialysis cell (Spectrum Medical Industries, Los Angeles, CA, USA).

in vitro [8] = settings: rat, intestinal microsomes
[9] = tested on: Candida albicans-infected mice; settings: long-term administration to Candida albicans-infected mice; cited from earlier work
α-glycosidase = settings: interaction with acarbose; cited from earlier work
[10] = tested on: human carbonic anhydrase 1; settings: interaction with acetazolamide; cited from earlier work
[11] = pH 7.4, with voriconazole 20 μM
[12] = rat hepatic microsomes, 20 μM voriconazole
[13] = rat intestinal microsomes, 20 μM voriconazole

In the case of C[C@@H]1CCN(C(=O)CC#N)C[C@@H]1N(C)c1ncnc2[nH]ccc12 [tofacitinib, Tofacitinib], the “AUC of tofacitinib higher when co-administered with fluconazole” value [1] is listed as 79%, the “AUC of tofacitinib higher when combined with ketoconazole” value [1] is listed as 103% and the Volume of distribution ([2]; tofacitinib oral, healthy subjects) is listed as 1.24 L/kg. For the same molecule, the Plasma protein binding ([2]; tofacitinib, healthy subjects) was “approximately 40%”, the “Absolute oral bioavailability (F)” value ([2]; tofacitinib, humans) was “approximately 74%” and the “Fraction processed by CYP2C19” value ([2]; tofacitinib, humans) was 20%. The “Fraction processed by CYP3A4” value ([2]; tofacitinib, humans) was “about 50%”, the F [3] was 72.4% and the “'true' fraction of the oral dose unabsorbed (Funabs)” value ([3]; po) was “approximately 0.162%”. For the same molecule, the “Fraction of the oral dose absorbed” value ([3]; po) was “more than 99%”, the CLR ([3]; po, 20 mg/kg) was 0.310 ± 0.117 mL/min/kg and the Km (in vitro [4]; pH 7.4) was 124 ± 13.7 µM. It also gave a microsomal CLint (in vitro [4]; pH 7.4) of 23.3 ± 0.689 µL/min/mg, a Km (in vitro [4]; [11]) of 147 ± 43.4 µM and a microsomal CLint (in vitro [4]; [11]) of 8.05 ± 2.01 µL/min/mg. The AUC ([5]; in vivo) was 12300 ng·h/mL, the CL renal ([5]; in vivo) was 3.61 ± 0.829 mL/min/kg and the AUC ([5]; iv, AUC) was 4630 ng·h/mL. The CL renal ([5]; iv, CLR) was 1.44 ± 0.678 mL/min/kg, the Vd ([5]; iv, Vss) was 1.21 ± 0.489 L/kg and the “Vmax for the elimination of tofacitinib” value (rat hepatic microsomes; with 20 μM VCZ) was 1184 ± 470 pmol/min/mg protein. For the same molecule, the “Vmax for the elimination of tofacitinib” value (rat hepatic microsomes; without VCZ) was 2895 ± 319 pmol/min/mg protein, the “CLint of tofacitinib slower in the presence of voriconazole” value (rat hepatic microsomes; [12]) was 65.5% and the “Vmax of tofacitinib elimination slower in the presence of voriconazole” value (rat hepatic microsomes; [12]) was 59.1%. The “Vmax for the elimination of tofacitinib” value ([6]; intestinal microsomes, with 20 μM VCZ, n = 3) was 212 ± 27.0 pmol/min/mg protein, the “Vmax for the elimination of tofacitinib” value ([6]; intestinal microsomes, without VCZ, n = 3) was 380 ± 86.1 pmol/min/mg protein and the “CLint of tofacitinib slower in the presence of voriconazole” value [6, 13] was 21.1%. For the same molecule, the “Vmax of tofacitinib elimination slower in the presence of voriconazole” value [6, 13] was 44.2%, the bioavailability (in vivo) was 71.2% and the CL renal (in vivo; po, 20 mg/kg, CLR) was 5.36 ± 1.35 mL/min/kg. For the same molecule, the Tmax (in vivo; po, 20 mg/kg) was 1.46 h, the fraction unbound at 8 h, 5 μg/mL ([7]; pH 7.4, tofacitinib 5 μg/mL in the absence of voriconazole) was 0.621 and the fraction unbound at 8 h, 5 μg/mL ([7]; pH 7.4, tofacitinib 5 μg/mL in the presence of voriconazole 5 μg/mL) was 0.639. The Km (in vitro [8]; pH 7.4) was 43.1 ± 11.7 µM, the microsomal CLint (in vitro [8]; pH 7.4) was 8.94 ± 1 µL/min/mg and the Km (in vitro [8]; [11]) was 30.1 ± 3.29 µM. The microsomal CLint (in vitro [8]; [11]) was 7.05 ± 0.12 µL/min/mg and the “Survival rate of infected mice” value [9] was “significantly reduce their survival rate”.
For C[C@@H](c1ncncc1F)[C@](O)(Cn1cncn1)c1ccc(F)cc1F [voriconazole, Voriconazole], the “Type of inhibition of α-glycosidase” value (α-glycosidase) is given as “non-competitive inhibition”, the F ([2]; human, in vivo) is given as “over 90%” and the Protein binding ([2]; human, in vivo) is given as “approximately 58%”. For the same molecule, the half-life ([2]; human, in vivo) was “approximately 6 h”, the F [3] was 122% and the MRT ([5]; iv) was 6.67 ± 2.48 h. The AUC ([5]; iv, AUC) was 31000 ng·h/mL, the MRT ([5]; iv, MRT) was 7.03 h and the half-life ([5]; iv, Terminal half-life) was 5.23 ± 1.61 h. The “Type of inhibition of human carbonic anhydrase 1” value [10] was “non-competitive inhibition”, the “Manner of inhibition of tofacitinib metabolism by voriconazole” value (rat hepatic microsomes; Lineweaver–Burk and Dixon plots, rat hepatic microsomes) was “non-competitive manner” and the “Manner of inhibition of tofacitinib metabolism by voriconazole” value ([6]; rat intestinal microsomes) was “non-competitive manner”. It also gave a Ki ([6]; read-out: Apparent Ki of voriconazole for the inhibition of tofacitinib metabolism, intestinal microsomes, non-competitive model, n = 3) of 26.2 ± 8.05 µM, a bioavailability (in vivo) of 106% and an AUC (in vivo; po, 20 mg/kg, AUC) of 65600 ng·h/mL. For the same molecule, the Cmax (in vivo; po, 20 mg/kg, Cmax) was 7820 ± 1130 ng/mL and the Tmax (in vivo; po, 20 mg/kg) was 4.38 h.
